The values below come from patent US20100317647A1 (priority 2009, published 2010).

For this assay, the target named is human Cat S (Homo sapiens, UniProt P25774). The assay is described as follows: Cathepsin enzyme inhibition assay (fluorogenic peptide substrate cleavage). It counts as biochemical. The settings on record: human Cat S 1 nM; substrate Z-Val-Val-Arg-AMC 20 μM; pH 6.5; fluorescence over 20 minutes. The procedure: Cathepsin Enzyme Inhibition Assay
Chain of human Cat S (P25774 115-331): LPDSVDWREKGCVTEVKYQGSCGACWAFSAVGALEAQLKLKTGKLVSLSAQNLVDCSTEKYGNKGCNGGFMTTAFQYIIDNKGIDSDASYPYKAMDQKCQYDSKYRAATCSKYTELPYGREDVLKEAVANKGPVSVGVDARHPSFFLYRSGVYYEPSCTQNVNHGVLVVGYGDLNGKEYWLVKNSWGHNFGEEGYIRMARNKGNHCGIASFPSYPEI
Enzyme activity is measured by observing the increase in fluorescence intensity caused by cleavage of a peptide substrate containing a fluorophore whose emission is quenched in the intact peptide.
Assay buffer: 100 mM potassium phosphate pH 6.5, EDTA-Na 5 mM, Triton X-100 0.001%, DTT 5 mM. Enzymes (all at 1 nM): human and mouse Cathepsin S, Cat K, Cat B, Cat L. Substrate (20 μM): Z-Val-Val-Arg-AMC, except for Cat K which uses Z-Leu-Arg-AMC (both from Bachem).
AMC=7-Amino-4-Methyl-Coumarin.
DTT=dithiothreitol. Final volume: 100 μL.
Excitation 360 nm, Emission 465 nm.
Enzyme is added to the substance dilutions in 96-well microtitre plates and the reaction is started with substrate. Fluorescence emission is measured over 20 minutes, during which time a linear increase is observed in the absence of inhibitor. IC50 are calculated by standard methods. Inhibition of human Cat S, mouse Cat S, human Cat K, mouse Cat K, human Cat B, mouse Cat B, human Cat L and mouse Cat L have been measured separately. The results obtained for human Cat S are expressed in the following table.
For orientation: IC50 means the concentration that gives 50% inhibition. `N#CC1(NC(=O)[C@@H]2C[C@@H](S(=O)(=O)c3ccc(-c4ccnc(Cl)c4)cc3C(F)(F)F)C[C@H]2C(=O)N2CC(F)(F)C2)CC1` [Example 122, (1R,2R,4R)-4-[4-(2-Chloro-pyridin-4-yl)-2-trifluoromethyl-benzenesulfonyl]-2-(3,3-difluoro-azetidine-1-carbonyl)-cyclopentanecarboxylic acid (1-cyano-cyclopropyl)-amide] registered an IC50 of 0.2 nM. The same measure for `CN1CCC(C#N)(NC(=O)[C@@H]2C[C@@H](S(=O)(=O)c3ccccc3C(F)(F)F)C[C@H]2OCc2ccc(Cl)cc2)CC1` (racemic) [Example 235, (1R,2R,4R) and (1S,2S,4S)-2-(4-Chloro-benzyloxy)-4-(2-trifluoromethyl-benzenesulfonyl)-cyclopentanecarboxylic acid (4-cyano-1-methyl-piperidin-4-yl)-amide]: 7.3 nM; for `CO[C@@H]1C[C@H](S(=O)(=O)c2ccc(Br)cc2C(F)(F)F)C[C@H]1C(=O)NC1(C#N)CC1` (single isomer, unassigned) [Example 137]: 4.8 nM; for `N#CC1(NC(=O)[C@@H]2C[C@@H](S(=O)(=O)c3ccc(Br)cc3Cl)C[C@H]2C(=O)N2CCC(F)(F)C2)CC1` [Example 187, (1R,2R,4R)-4-(4-Bromo-2-chloro-benzenesulfonyl)-2-(3,3-difluoro-pyrrolidine-1-carbonyl)-cyclopentanecarboxylic acid (1-cyano-cyclopropyl)-amide]: 1.07 nM.

In the case of `N#CC1(NC(=O)[C@@H]2C[C@@H](S(=O)(=O)c3ccc(N4CCN(C5CC5)CC4)cc3Cl)C[C@H]2C(=O)N2CCC(F)(F)C2)CC1` [Example 191, (1R,2R,4R)-4-[2-Chloro-4-(4-cyclopropyl-piperazin-1-yl)-benzenesulfonyl]-2-(3,3-difluoro-pyrrolidine-1-carbonyl)-cyclopentanecarboxylic acid (1-cyano-cyclopropyl)-amide], 0.575 nM corresponded to half-maximal inhibition (IC50). Then `Cc1ccc(S(=O)(=O)[C@@H]2C[C@@H](C(=O)NCC#N)[C@H](C(=O)N3CCOCC3)C2)cc1` [Example 4, (1R,2R,4R)-2-(Morpholine-4-carbonyl)-4-(toluene-4-sulfonyl)-cyclopentanecarboxylic acid cyanomethyl-amide], with 0.6 nM; and `Cn1nccc1-c1ccc(S(=O)(=O)[C@@H]2C[C@@H](C(=O)NC3(C#N)CC3)[C@H](C(=O)N3CC(F)(F)C3)C2)c(C(F)(F)F)c1` [Example 124, (1R,2R,4R)-2-(3,3-Difluoro-azetidine-1-carbonyl)-4-[4-(2-methyl-2H-pyrazol-3-yl)-2-trifluoromethyl-benzenesulfonyl]-cyclopentanecarboxylic acid (1-cyano-cyclopropyl)-amide], with 0.2 nM.

Take `N#CC1(NC(=O)[C@@H]2C[C@@H](S(=O)(=O)c3ccc(N4CC5(COC5)C4)cc3C(F)(F)F)C[C@H]2C(=O)N2CC(F)(F)C2)CC1` [Example 133, (1R,2R,4R)-2-(3,3-Difluoro-azetidine-1-carbonyl)-4-[4-(2-oxa-6-aza-spiro[3.3]hept-6-yl)-2-trifluoromethyl-benzenesulfonyl]-cyclopentanecarboxylic acid (1-cyano-cyclopropyl)-amide]: the IC50 amounted to 0.5 nM. The same measure for `N#CC1(NC(=O)[C@H]2CC[C@H](S(=O)(=O)c3ccc(N4CCOCC4)cc3Cl)C2)CC1` (racemic) [Example 94, (1S,3S) and (1R,3R)-3-(2-Chloro-4-morpholin-4-yl-benzenesulfonyl)-cyclopentanecarboxylic acid (1-cyano-cyclopropyl)-amide]: 290 nM; for `COc1ccc(-c2ccc(S(=O)(=O)[C@H]3C[C@@H](OC)[C@H](C(=O)NC4(C#N)CC4)C3)c(C(F)(F)F)c2)cn1` (racemic) [Example 78, (1R,2R,4R) and (1S,2S,4S)-2-Methoxy-4-[4-(6-methoxy-pyridin-3-yl)-2-trifluoromethyl-benzenesulfonyl]-cyclopentanecarboxylic acid (1-cyano-cyclopropyl)-amide]: 0.3 nM; for `Cc1ccc(S(=O)(=O)C2C[C@@H](C(=O)NC3(C#N)CC3)[C@H](C(=O)N3CCC(F)(F)C3)C2)nn1` (mixture of isomers) [Example 224, (1R,2R,4S)-2-(3,3-Difluoro-pyrrolidine-1-carbonyl)-4-(6-methyl-pyridazine-3-sulfonyl)-cyclopentanecarboxylic acid (1-cyano-cyclopropyl)-amide and (1R,2R,4R)-2-(3,3-Difluoro-pyrrolidine-1-carbonyl)-4-(6-methyl-pyridazine-3-sulfonyl)-cyclopentanecarboxylic acid (1-cyano-cyclopropyl)-amide]: 32 nM. The same measure for `CC(=O)N1CCN(c2ccc(S(=O)(=O)[C@@H]3C[C@@H](C(=O)NC4(C#N)CC4)[C@H](C(=O)N4CCC(F)(F)C4)C3)c(Cl)c2)CC1` [Example 208, (1R,2R,4R)-4-[4-(4-Acetyl-piperazin-1-yl)-2-chloro-benzenesulfonyl]-2-(3,3-difluoro-pyrrolidine-1-carbonyl)-cyclopentanecarboxylic acid (1-cyano-cyclopropyl)-amide]: 1.45 nM; for `CN(C)C(=O)[C@@H]1C[C@H](S(=O)(=O)c2ccccc2)C[C@H]1C(=O)NC1(C#N)CC1` [Example 27, (1R,2R,4R)-4-Benzenesulfonyl-cyclopentane-1,2-dicarboxylic acid 1-[(1-cyano-cyclopropyl)-amide]2-dimethylamide]: 6.2 nM; for `CO[C@H]1C[C@@H](S(=O)(=O)c2ccc(-n3cc(CCO)nn3)cc2C(F)(F)F)C[C@@H]1C(=O)NC1(C#N)CC1` (racemic) [Example 253, (1S,2S,4S) and (1R,2R,4R)-4-{4-[4-(2-Hydroxy-ethyl)-[1,2,3]triazol-1-yl]-2-trifluoromethyl-benzenesulfonyl}-2-methoxy-cyclopentanecarboxylic acid (1-cyano-cyclopropyl)-amide]: 0.675 nM. Regarding `CC(C)(C)NC(=O)[C@@H]1C[C@H](S(=O)(=O)c2ccccc2)C[C@H]1C(=O)NC1(C#N)CC1` [Example 28, (1R,2R,4S)-4-Benzenesulfonyl-cyclopentane-1,2-dicarboxylic acid 1-tert-butylamide 2-[(1-cyano-cyclopropyl)-amide]], 25.5 nM corresponded to half-maximal inhibition (IC50). This IC50 is about 38-fold higher than that of the molecule before. Then `CC(C)(C#N)NC(=O)[C@@H]1C[C@@H](S(=O)(=O)c2ccccc2)C[C@H]1C(=O)N1CCOCC1` [Example 34, (1R,2R,4R)-4-Benzenesulfonyl-2-(morpholine-4-carbonyl)-cyclopentanecarboxylic acid (cyano-dimethyl-methyl)-amide], with 2.5 nM. Then `N#CC1(NC(=O)[C@@H]2C[C@@H](S(=O)(=O)c3ccccc3Cl)C[C@H]2OCc2c(F)cc(Cl)cc2F)CC1` (racemic) [Example 251, (1R,2R,4R) and (1S,2S,4S)-4-(2-Chloro-benzenesulfonyl)-2-(4-chloro-2,6-difluoro-benzyloxy)-cyclopentanecarboxylic acid (1-cyano-cyclopropyl)-amide], with 6.11 nM; and `C[C@H](Oc1ccc(S(=O)(=O)[C@H]2CC[C@H](C(=O)NCC#N)C2)c(Cl)c1)C(F)(F)F` (racemic) [Example 80, (1S,3S)-3-[2-Chloro-4-(2,2,2-trifluoro-1-methyl-ethoxy)-benzenesulfonyl]-cyclopentanecarboxylic acid cyanomethyl-amide (epimeric mixture of racemate)], with 1030 nM; and `CO[C@@H]1C[C@H](S(=O)(=O)c2ccc(-c3cncnc3)cc2C(F)(F)F)C[C@H]1C(=O)NC1(C#N)CC1` (racemic) [Example 82, (1R,2R,4R) and (1S,2S,4S)-2-Methoxy-4-(4-pyrimidin-5-yl-2-trifluoromethyl-benzenesulfonyl)-cyclopentanecarboxylic acid (1-cyano-cyclopropyl)-amide], with 0.6 nM.

For the molecule `CO[C@@H]1C[C@H](S(=O)(=O)c2ccc(N3CCN(C(C)C)CC3)cc2C(F)(F)F)C[C@H]1C(=O)NC1(C#N)CC1` (racemic) [Example 177, (1R,2R,4R) and (1S,2S,4S)-4-[4-(4-Isopropyl-piperazin-1-yl)-2-trifluoromethyl-benzenesulfonyl]-2-methoxy-cyclopentanecarboxylic acid (1-cyano-cyclopropyl)-amide], the 50% inhibitory concentration (IC50) amounted to 0.923 nM. This IC50 lies about 1.5-fold higher than the previous one. `CO[C@@H]1C[C@H](S(=O)(=O)c2ccc(-c3c(C)noc3C)cc2C(F)(F)F)C[C@H]1C(=O)NC1(C#N)CC1` (racemic) [Example 91, (1R,2R,4R) and (1S,2S,4S)-4-[4-(3,5-Dimethyl-isoxazol-4-yl)-2-trifluoromethyl-benzenesulfonyl]-2-methoxy-cyclopentanecarboxylic acid (1-cyano-cyclopropyl)-amide] yielded an IC50 of 0.5 nM.

`N#CC1(NC(=O)[C@@H]2C[C@@H](S(=O)(=O)c3ccc(N4CCN(C5CC5)CC4)cc3Cl)C[C@H]2C(=O)N2CC(F)(F)C2)CC1` [Example 159, (1R,2R,4R)-4-[2-Chloro-4-(4-cyclopropyl-piperazin-1-yl)-benzenesulfonyl]-2-(3,3-difluoro-azetidine-1-carbonyl)-cyclopentanecarboxylic acid (1-cyano-cyclopropyl)-amide] yielded an IC50 of 0.385 nM.
